Experimental data as given in ChEMBL document CHEMBL1926563, “Synthesis, antimicrobial, antimycobacterial and structure-activity relationship of substituted pyrazolo-, isoxazolo-, pyrimido- and mercaptopyrimidocyclohepta[b]indoles” (2012).
≈ marks a conversion by molar mass, not a printed value. Calls of active or inactive are those of the source. No cut-off for these calls is given here.

Assays:
Aspergillus niger [1] = test: Antifungal activity against Aspergillus niger NCIM 596 assessed as zone of inhibition at 100 ug/disc after 48 hrs by disk diffusion method; assay type: functional; settings: NCIM 596, 48 h, read-out: DIZ
Curvularia lunata [2] = test: Antifungal activity against Curvularia lunata NCIM 716 assessed as zone of inhibition at 200 ug/disc after 48 hrs by disk diffusion method; assay type: functional; settings: NCIM 716, 48 h, read-out: DIZ
Klebsiella pneumoniae [3] = test: Antibacterial activity against Klebsiella pneumoniae NCIM 2957 after 24 hrs by disk diffusion method; assay type: functional; settings: NCIM 2957, 24 h
[4] = system: Mycobacterium tuberculosis; test: Antimycobacterial activity against Mycobacterium tuberculosis H37Rv after 7 days by resazurin microtiter plate assay; assay type: functional; settings: 168 h
Aspergillus niger [5] = test: Antifungal activity against Aspergillus niger NCIM 596 assessed as zone of inhibition at 200 ug/disc after 48 hrs by disk diffusion method; assay type: functional; settings: NCIM 596, 48 h, read-out: DIZ
Proteus vulgaris [6] = test: Antibacterial activity against Proteus vulgaris NCIM 2027 assessed as zone of inhibition at 100 ug/disc after 24 hrs by disk diffusion method; assay type: functional; settings: NCIM 2027, 24 h, read-out: DIZ
Klebsiella pneumoniae [7] = test: Antibacterial activity against Klebsiella pneumoniae NCIM 2957 assessed as zone of inhibition at 200 ug/disc after 24 hrs by disk diffusion method; assay type: functional; settings: NCIM 2957, 24 h, read-out: DIZ
Fusarium solani [8] = test: Antifungal activity against Fusarium solani NCIM 1330 after 48 hrs by disk diffusion method; assay type: functional; settings: NCIM 1330, 48 h
Proteus vulgaris [9] = test: Antibacterial activity against Proteus vulgaris NCIM 2027 after 24 hrs by disk diffusion method; assay type: functional; settings: NCIM 2027, 24 h
Bacillus subtilis [10] = test: Antibacterial activity against Bacillus subtilis NCIM 2063 assessed as zone of inhibition at 200 ug/disc after 24 hrs by disk diffusion method; assay type: functional; settings: NCIM 2063, 24 h, read-out: DIZ
Curvularia lunata [11] = test: Antifungal activity against Curvularia lunata NCIM 716 after 48 hrs by disk diffusion method; assay type: functional; settings: NCIM 716, 48 h
Bacillus subtilis [12] = test: Antibacterial activity against Bacillus subtilis NCIM 2063 assessed as zone of inhibition at 100 ug/disc after 24 hrs by disk diffusion method; assay type: functional; settings: NCIM 2063, 24 h, read-out: DIZ
Proteus vulgaris [13] = test: Antibacterial activity against Proteus vulgaris NCIM 2027 assessed as zone of inhibition at 200 ug/disc after 24 hrs by disk diffusion method; assay type: functional; settings: NCIM 2027, 24 h, read-out: DIZ
Staphylococcus aureus [14] = test: Antibacterial activity against Staphylococcus aureus NCIM 5021 assessed as zone of inhibition at 100 ug/disc after 24 hrs by disk diffusion method; assay type: functional; settings: NCIM 5021, 24 h, read-out: DIZ
Bacillus subtilis [15] = test: Antibacterial activity against Bacillus subtilis NCIM 2063 after 24 hrs by disk diffusion method; assay type: functional; settings: NCIM 2063, 24 h
Curvularia lunata [16] = test: Antifungal activity against Curvularia lunata NCIM 716 assessed as zone of inhibition at 100 ug/disc after 48 hrs by disk diffusion method; assay type: functional; settings: NCIM 716, 48 h, read-out: DIZ
Staphylococcus aureus [17] = test: Antibacterial activity against Staphylococcus aureus NCIM 5021 after 24 hrs by disk diffusion method; assay type: functional; settings: NCIM 5021, 24 h
Fusarium solani [18] = test: Antifungal activity against Fusarium solani NCIM 1330 assessed as zone of inhibition at 200 ug/disc after 48 hrs by disk diffusion method; assay type: functional; settings: NCIM 1330, 48 h, read-out: DIZ
Staphylococcus aureus [19] = test: Antibacterial activity against Staphylococcus aureus NCIM 5021 assessed as zone of inhibition at 200 ug/disc after 24 hrs by disk diffusion method; assay type: functional; settings: NCIM 5021, 24 h, read-out: DIZ
Aspergillus niger [20] = test: Antifungal activity against Aspergillus niger NCIM 596 after 48 hrs by disk diffusion method; assay type: functional; settings: NCIM 596, 48 h
Klebsiella pneumoniae [21] = test: Antibacterial activity against Klebsiella pneumoniae NCIM 2957 assessed as zone of inhibition at 100 ug/disc after 24 hrs by disk diffusion method; assay type: functional; settings: NCIM 2957, 24 h, read-out: DIZ
Fusarium solani [22] = test: Antifungal activity against Fusarium solani NCIM 1330 assessed as zone of inhibition at 100 ug/disc after 48 hrs by disk diffusion method; assay type: functional; settings: NCIM 1330, 48 h, read-out: DIZ
[23] = system: Mycobacterium tuberculosis; test: Antimycobacterial activity against Mycobacterium tuberculosis H37Rv at 1.5 to 50 ug/ml after 7 days by resazurin microtiter plate assay; assay type: functional, organism-based

Compound | zone of inhibition at 100 µg/disc (Aspergillus niger [1]) [mm] | zone of inhibition at 200 µg/disc (Curvularia lunata [2]) [mm] | MIC (Klebsiella pneumoniae [3]) [µg/mL] | MIC [4] [µg/mL] | zone of inhibition at 200 µg/disc (Aspergillus niger [5]) [mm] | zone of inhibition at 100 µg/disc (Proteus vulgaris [6]) [mm] | zone of inhibition at 200 µg/disc (Klebsiella pneumoniae [7]) [mm] | MIC (Fusarium solani [8]) [µg/mL] | MIC (Proteus vulgaris [9]) [µg/mL] | zone of inhibition at 200 µg/disc (Bacillus subtilis [10]) [mm] | MIC (Curvularia lunata [11]) [µg/mL] | zone of inhibition at 100 µg/disc (Bacillus subtilis [12]) [mm] | zone of inhibition at 200 µg/disc (Proteus vulgaris [13]) [mm] | zone of inhibition at 100 µg/disc (Staphylococcus aureus [14]) [mm] | MIC (Bacillus subtilis [15]) [µg/mL] | zone of inhibition at 100 µg/disc (Curvularia lunata [16]) [mm] | zone of inhibition at 200 µg/disc (Fusarium solani [18]) [mm] | zone of inhibition at 200 µg/disc (Staphylococcus aureus [19]) [mm] | zone of inhibition at 100 µg/disc (Klebsiella pneumoniae [21]) [mm] | zone of inhibition at 100 µg/disc (Fusarium solani [22]) [mm] | also measured
Oc1ncc2c(n1)-c1[nH]c3ccc(Cl)cc3c1CCC2 | 16 | 23 | 100 (≈ 350 µM) | 3.12 (≈ 10.9 µM) | 19 | 22 | 25 | 100 (≈ 350 µM) | 100 (≈ 350 µM) | 28 | 50 (≈ 175 µM) | 25 | 20 | 26 | 50 (≈ 175 µM) | 19 | 20 | 27 | 22 | 17 | MIC (Staphylococcus aureus [17]): 50 µg/mL (≈ 175 µM); MIC (Aspergillus niger [20]): 50 µg/mL (≈ 175 µM)
Clc1ccc2[nH]c3c(c2c1)CCCc1cnn(-c2ccccc2)c1-3 | 30 | 38 | 50 (≈ 150 µM) | 3.12 (≈ 9.35 µM) | 35 | 29 | 30 | 200 (≈ 599 µM) | 50 (≈ 150 µM) | 32 | 100 (≈ 300 µM) | 33 | 31 | 32 | 25 (≈ 74.9 µM) | 31 | 39 | 34 | 28 | 32 | MIC (Staphylococcus aureus [17]): 25 µg/mL (≈ 74.9 µM); MIC (Aspergillus niger [20]): 100 µg/mL (≈ 300 µM)
Clc1ccc2[nH]c3c(c2c1)CCCc1c[nH]nc1-3 | 32 | 38 | 100 (≈ 388 µM) | 12.5 (≈ 48.5 µM) | 35 | 31 | 32 | 200 (≈ 776 µM) | 100 (≈ 388 µM) | 37 | 200 (≈ 776 µM) | 35 | 33 | 34 | 100 (≈ 388 µM) | 34 | 39 | 36 | 30 | 35 | MIC (Staphylococcus aureus [17]): 100 µg/mL (≈ 388 µM); MIC (Aspergillus niger [20]): 200 µg/mL (≈ 776 µM)
c1ccc2c3c([nH]c2c1)-c1n[nH]cc1CCC3 | 28 | 33 |  |  | 31 | 22 | 26 |  |  | 28 |  | 26 | 25 | 27 |  | 31 | 35 | 29 | 23 | 30 | MIC [23]: inactive
